Assay results as given in patent US5674909A, “Derivatives of 2-amino-1,2,3,4-tetrahydronaphthalene active on the cardiovascular system” (Zambon Group, priority 1994, dated 1997).
Structures can show the parent of a compound that is named as a salt.

How the values were obtained:
D2 receptor = D2 receptor (Rattus norvegicus, UniProt P61169); test: biochemical; assay type: binding, rat (Sprague-Dawley); details: [3H]-domperidone 0.3 nM, rat striated membranes, 0.01% BSA, 37° C., 30 minutes; read-out: Affinity [K1 (nM)] towards D2 receptor
Procedure: (§1) The tissue were homogenized in 50 mM Tris/HCl buffer at pH 7.4 (1:100 w/v).
(§2) The homogenate was centrifuged and the pellet resuspended, recentrifuged and resuspended again in 50 mM Tris/HCl buffer at pH 7.4 containing 120 mM NaCl, 5 mM KCl, 2 mM CaCl2 and 1 mM MgCl2.
Furthermore, bovine serum albumine (BSA) (0.01%) was added.
The mixture was incubated at 37° C. for 30 minutes for each concentration of tested compounds.

D1 receptor = D1 receptor (Rattus norvegicus, UniProt P18901); test: biochemical; assay type: binding, rat (Sprague-Dawley); details: [3H]-SCH23390 0.2 nM, rat striated membranes, pH 7.4, 37° C., 20 minutes; read-out: Affinity [K1 (nM)] towards D1 receptor
Procedure: as §1, §2
The mixture was incubated with different concentrations of the tested compounds at 37° C. for 20 minutes, filtered under vacuum through Whatman GF/C filters and then washed 4 times with 5 ml of 50 mM Tris/HCl buffer (pH 7.4) cooled with ice.

[1] = system: D1 -like (Rabbit Splenic Artery); test: D1-like activity in the Rabbit Splenic Artery (RSA) test; details: agonist activity at the peak of the effect; contracted with U46619 0.1 μM
Procedure: Arterial rings were prepared according to Semeraro et al., Naunyn. Schmied. Arch. Pharmacol., 1990, 342, 539.
The arterial preparations were contracted with U46619 (9,11-di-deoxy-11α,9α-epoxy-methanoprostaglandin F2α) at the submaximal concentration 0.1 μM.
(§3) The tested compounds were cumulatively administered.
(§4) Ref. A was used as reference substance.
(§5) Agonist activity evaluated at the peak of the effect and expressed as potency ratio (EC50 of Ref. A/EC50 of tested compound) is reported in table 2.

[2] = target: T1, D2 -like (Rabbit Ear Artery) (Oryctolagus cuniculus, UniProt G1T1Q0); test: D2-like activity in the Rabbit Ear Artery (REA) test; set-up: species or system New Zealand rabbit; details: agonist activity at the peak of the effect; electrically stimulated
T1 construct: the central ear artery was dissected into 3 mm long rings; from tissue; host or cells: rabbit central ear artery rings (male New Zealand rabbits), electrically stimulated
Procedure: Arterial rings were prepared according to the method described by Steinsland et al., Science, 1978, 443, 199, modified as follows. Male New Zealand rabbits weighing 2.5-3 Kg were sacrificed by intravenous injection of an excess of pentobarbital sodium and exsanguinated. The two ears were taken away and the central ear artery was dissected into 3 mm long rings.
These preparations were set up in a 25 ml organ bath containing Krebs solution (mM/l): NaCl 118, KCl 4.7, CaCl2 2.5, MgSO4 1.2, NaHCO3 25, KH2 PO4 1.2, glucose 11.1, equilibrated with 95% 02 -5% CO2 and maintained at 35°±1° C.
Krebs solution was medicated with EDTA (10 μM) to prevent cathecolamine oxydation, desipramine (0.1 μM) and corticosterone (30 μM), to block neuronal and extraneuronal cathecolamine uptake. The preparations were electrically stimulated (10 Hz, 1 msec, 40-80 mA, 500 msec duration) at 5 minutes intervals.
as §3, §4, §5

T1 sequence (G1T1Q0 1-443): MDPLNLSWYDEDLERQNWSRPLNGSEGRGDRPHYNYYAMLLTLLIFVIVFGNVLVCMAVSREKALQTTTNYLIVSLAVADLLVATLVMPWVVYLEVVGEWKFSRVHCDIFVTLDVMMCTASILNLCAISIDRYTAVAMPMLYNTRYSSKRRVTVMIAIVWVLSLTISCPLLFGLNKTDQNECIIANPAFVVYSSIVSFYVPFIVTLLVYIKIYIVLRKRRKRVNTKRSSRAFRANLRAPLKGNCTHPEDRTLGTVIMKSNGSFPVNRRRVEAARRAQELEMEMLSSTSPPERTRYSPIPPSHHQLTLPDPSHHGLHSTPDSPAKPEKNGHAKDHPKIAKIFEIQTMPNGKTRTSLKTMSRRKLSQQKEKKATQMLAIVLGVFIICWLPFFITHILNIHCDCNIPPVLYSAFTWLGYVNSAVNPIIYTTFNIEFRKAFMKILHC
D2 receptor, sequence (P61169 whole entry): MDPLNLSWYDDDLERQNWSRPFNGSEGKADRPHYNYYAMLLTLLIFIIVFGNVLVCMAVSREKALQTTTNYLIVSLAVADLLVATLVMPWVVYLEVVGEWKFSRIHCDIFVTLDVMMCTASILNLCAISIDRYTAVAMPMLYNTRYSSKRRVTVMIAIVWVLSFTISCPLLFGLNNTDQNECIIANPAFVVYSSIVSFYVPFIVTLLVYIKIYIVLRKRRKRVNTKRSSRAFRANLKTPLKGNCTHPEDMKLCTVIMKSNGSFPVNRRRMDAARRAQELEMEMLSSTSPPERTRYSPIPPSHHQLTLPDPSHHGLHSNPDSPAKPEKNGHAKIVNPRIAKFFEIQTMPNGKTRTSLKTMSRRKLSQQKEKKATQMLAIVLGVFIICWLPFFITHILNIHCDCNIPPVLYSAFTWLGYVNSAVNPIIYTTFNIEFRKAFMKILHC
D1 receptor, sequence (P18901 whole entry): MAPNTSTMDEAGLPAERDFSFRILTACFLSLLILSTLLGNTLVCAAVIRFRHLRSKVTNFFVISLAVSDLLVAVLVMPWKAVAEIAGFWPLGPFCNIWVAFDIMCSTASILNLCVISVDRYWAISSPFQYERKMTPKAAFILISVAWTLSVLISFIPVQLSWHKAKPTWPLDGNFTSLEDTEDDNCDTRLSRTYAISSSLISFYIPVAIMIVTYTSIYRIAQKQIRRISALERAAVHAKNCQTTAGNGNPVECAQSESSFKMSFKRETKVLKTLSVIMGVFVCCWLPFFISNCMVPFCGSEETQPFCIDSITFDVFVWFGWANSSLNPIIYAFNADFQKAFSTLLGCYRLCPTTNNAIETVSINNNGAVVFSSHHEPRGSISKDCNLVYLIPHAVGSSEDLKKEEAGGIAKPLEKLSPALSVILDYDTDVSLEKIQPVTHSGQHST

Compound	Ki (D2 receptor)	Ki (D1 receptor)	D1 -like (RSA) potency ratio (EC50 of Ref. A/EC50 of tested compound) [1]	D2 -like (REA) potency ratio (EC50 of Ref. A/EC50 of tested compound) [2]
CCCN(CCCCCCNC(=O)COc1ccccc1OC)[C@H]1CCc2c(ccc(O)c2O)C1 [Compound 7, (S)-N-propyl-N-[6-[(2-methoxyphenoxy)acetylamino]hexyl]-5,6-dihydroxy-1,2,3,4-tetrahydro-2-naphthylamine hydrochloride]	0.25 nM	370 nM		
Br.Br.CCCN(CCCCCCNCCc1ccc(O)c(Cl)c1)[C@H]1CCc2c(ccc(O)c2O)C1 [Compound 11, (S)-N-propyl-N-[6-[2-(3-chloro-4-hydroxyphenyl)ethylamino]hexyl]-5,6-dihydroxy-1,2,3,4-tetrahydro-2-naphthylamine dihydrobromide]			25	4
CCCN(CCCCCCNCCc1ccc(S(=O)(=O)O)cc1)[C@H]1CCc2c(ccc(O)c2O)C1.Cl.Cl [Compound 39, (S)-N-propyl-N-[6-[2-(4-sulphophenyl)ethylamino]hexyl]-5,6-dihydroxy-1,2,3,4-tetrahydro-2-naphthylamine dihydrochloride]			2.5	3
Br.Br.CCCN(CCCCCCNCCc1ccc2[nH]c(=O)sc2c1)[C@H]1CCc2c(ccc(O)c2O)C1 [Compound 18, (S)-N-propyl-N-[6-[2-(2-oxo-3H-1,3-benzothiazol-6-yl)ethylamino]hexyl]-5,6-dihydroxy-1,2,3,4-tetrahydro-2-naphthylamine dihydrobromide]			50	5
CCCN(CCCCCCNCCOc1ccccc1[N+](=O)[O-])[C@H]1CCc2c(ccc(O)c2O)C1 [Compound 4, (S)-N-propyl-N-[6-[2-(2-nitrophenoxy)ethylamino]hexyl]-5,6-dihydroxy-1,2,3,4-tetrahydro-2-naphthylamine dihydrochloride]	1.1 nM	78 nM		
CCCN(CCCCCCNCCc1ccc(OC)c(O)c1)[C@H]1CCc2c(ccc(O)c2O)C1.Cl.Cl [Compound 27, (S)-N-propyl-N-[6-[2-(3-hydroxy-4-methoxyphenyl)ethylamino]hexyl]-5,6-dihydroxy-1,2,3,4-tetrahydro-2-naphthylamine dihydrochloride]			25	4
Br.Br.CCCN(CCCCCCNCCc1ccc2sc(=O)[nH]c2c1)[C@H]1CCc2c(ccc(O)c2O)C1 [Compound 19, (S)-N-propyl-N-[6-[2-(2-oxo-3H-1,3-benzothiazol-5-yl)ethylamino]hexyl]-5,6-dihydroxy-1,2,3,4-tetrahydro-2-naphthylamine dihydrobromide]			11	4
CCCN(CCCCCCNCCc1ccc(C(N)=O)cc1)[C@H]1CCc2c(ccc(O)c2O)C1.Cl.Cl [Compound 37, (S)-N-propyl-N-[6-[2-(4-carbamoylphenyl)ethylamino]hexyl]-5,6-dihydroxy-1,2,3,4-tetrahydro-2-naphthylamine dihydrochloride]			5	5
CCCN(CCCCCCNCCc1ccc(O)c(N)c1)[C@H]1CCc2c(ccc(O)c2O)C1.Cl.Cl.Cl [Compound 29, (S)-N-propyl-N-[6-[2-(3-amino-4-hydroxyphenyl)ethylamino]hexyl]-5,6-dihydroxy-1,2,3,4-tetrahydro-2-naphthylamine trihydrochloride]			50	1.7
CCCN(CCCCCCNCCc1ccc2nc(N)sc2c1)[C@H]1CCc2c(ccc(O)c2O)C1.Cl.Cl.Cl [Compound 40, (S)-N-propyl-N-[6-[2-(2-amino-1,3-benzothiazol-6-yl)ethylamino]hexyl]-5,6-dihydroxy-1,2,3,4-tetrahydro-2-naphthylamine trihydrochloride]			14	3
CCCN(CCCCCCNCCc1ccc(CO)cc1)[C@H]1CCc2c(ccc(O)c2O)C1.Cl.Cl [Compound 36, (S)-N-propyl-N-[6-[2-(4-hydroxymethylphenyl)ethylamino]hexyl]-5,6-dihydroxy-1,2,3,4-tetrahydro-2-naphthylamine dihydrochloride]			4.5	12
CCCN(CCCCCCNCCc1ccc(NC(C)=O)cc1)[C@H]1CCc2c(ccc(O)c2O)C1.Cl.Cl [Compound 33, (S)-N-propyl-N-[6-[2-(4-acetylaminophenyl)ethylamino]hexyl]-5,6-dihydroxy-1,2,3,4-tetrahydro-2-naphthylamine dihydrochloride]			5	5
Br.Br.CCCN(CCCCCCNCCc1ccc(O)c(C)c1)[C@H]1CCc2c(ccc(O)c2O)C1 [Compound 14, (S)-N-propyl-N-[6-[2-(3-methyl-4-hydroxyphenyl)ethylamino]hexyl]-5,6-dihydroxy-1,2,3,4-tetrahydro-2-naphthylamine dihydrobromide]			33	3
Br.Br.CCCN(CCCCCCNCCc1ccc(O)c([N+](=O)[O-])c1)[C@H]1CCc2c(ccc(O)c2O)C1 [Compound 12, (S)-N-propyl-N-[6-[2-(3-nitro-4-hydroxyphenyl)ethylamino]hexyl]-5,6-dihydroxy-1,2,3,4-tetrahydro-2-naphthylamine dihydrobromide]			5	
CCCN(CCCCCCNCCc1ccc(C(=O)OC)cc1)[C@H]1CCc2c(ccc(O)c2O)C1.Cl.Cl [Compound 35, (S)-N-propyl-N-[6-[2-(4-methoxycarbonylphenyl)ethylamino]hexyl]-5,6-dihydroxy-1,2,3,4-tetrahydro-2-naphthylamine dihydrochloride]			2	0.4
CCCN(CCCCCCNCCc1ccc(NS(C)(=O)=O)cc1)[C@H]1CCc2c(ccc(O)c2O)C1.Cl.Cl [Compound 31, (S)-N-propyl-N-[6-[2-(4-methylsulphonylaminophenyl)ethylamino]hexyl]-5,6-dihydroxy-1,2,3,4-tetrahydro-2-naphthylamine dihydrochloride]			100	5
CCCN(CCCCCCNCCc1ccc(NC(N)=O)cc1)[C@H]1CCc2c(ccc(O)c2O)C1.Cl.Cl [Compound 32, (S)-N-propyl-N-[6-[2-(4-aminocarbonylaminophenyl)ethylamino]hexyl]-5,6-dihydroxy-1,2,3,4-tetrahydro-2-naphthylamine dihydrochloride]			33	10
Br.Br.CCCN(CCCCCCNCCc1cc(O)c(C)c(O)c1)[C@H]1CCc2c(ccc(O)c2O)C1 [Compound 17, (S)-N-propyl-N-[6-[2-(3,5-dihydroxy-4-methylphenyl)ethylamino]hexyl]-5,6-dihydroxy-1,2,3,4-tetrahydro-2-naphthylamine dihydrobromide]			12	25
CCCN(CCCCCCNCCc1ccc(O)c(OC)c1)[C@H]1CCc2c(ccc(O)c2O)C1.Cl.Cl [Compound 26, (S)-N-propyl-N-[6-[2-(3-methoxy-4-hydroxyphenyl)ethylamino]hexyl]-5,6-dihydroxy-1,2,3,4-tetrahydro-2-naphthylamine dihydrochloride]			33	10
Br.Br.CCCN(CCCCCCNCCc1cc(O)cc(Cl)c1)[C@H]1CCc2c(ccc(O)c2O)C1 [Compound 21, (S)-N-propyl-N-[6-[2-(3-chloro-5-hydroxyphenyl)ethylamino]hexyl]-5,6-dihydroxy-1,2,3,4-tetrahydro-2-naphthylamine dihydrobromide]			3	1.7
